# pKi: −log10 of the molar value.
# Experiments:
# [1] = system: Mus musculus; assay: Dose that prevented tonic extensor seizures and death in 50% of the mice.(ip); type: functional
# [2] = target: GABA-A receptor; anion channel; assay: Inhibition of [3H]diazepam binding to GABA-A central benzodiazepine receptor of rat brain homogenate
# [3] = Lethal dose when given intraperitoneally in mice; type: toxicity, organism-based; settings: mouse, in vivo, ip
# [4] = system: Mus musculus; assay: Inhibition of Anti-pentylenetetrazole-induced convulsions in mice following i.p. administration.; type: functional; settings: ip
# [5] = target: T1, GABA-A receptor; anion channel (Rattus norvegicus) (UniProt O09028+P15431+P18506+P18508+P19969+P20236+P23574+P23576+P28471+P28473+P30191+P62813+P63079+P63138+Q91ZM7+Q9ES14); assay: GABA ratio (IC50/IC50 in the presence of 10e-4 GABA).; type: protein-complex assay
# [6] = target: T1, GABA-A receptor; anion channel (Rattus norvegicus); assay: Relative inhibition of [3H]diazepam binding to GABA-A receptor of rat forebrain in the presence and absence of GABA(10e-4M)
# [7] = system: Rattus norvegicus; assay: Minimal effective dose (MED, ip) that significantly increased the number of shocks (anticonflict); type: functional; settings: read-out: MED
# [8] = system: Mus musculus; assay: Antagonism of Diazepam muscle relaxant effect by compound (30 mg/kg, ip) was measured as the ratio of fallen/treated mice.; type: functional
# [9] = system: Mus musculus; assay: Antagonism of Diazepam muscle relaxant effect by compound (10 mg/kg, ip) was measured as the ratio of fallen/treated mice.; type: functional
SMILES,ED50 [1],pKi [2],LD50 [3],ED50 [4],Ratio [5],Ratio [6],minimal effective dose [7],Fallen/treated [8],Fallen/treated [9]
COCCN(CCOC)c1nn2c(-c3ccc(OC)c(C)c3)nnc2c2ccccc12,> 100 mg/kg,5.74,400 mg/kg,,,,,,
CCN(C)c1nn2c(-c3ccccc3)nnc2c2ccccc12,,7.84,300 mg/kg,≥ 50 mg/kg,1.1,,,,
N#Cc1ccc(-c2nnc3c4ccccc4c(N4CCCC4)nn23)cc1,,6.99,600 mg/kg,≥ 100 mg/kg,1.1,,,,
CC(=O)Nc1ccc(-c2nnc3c4ccccc4c(N4CCCC4)nn23)cc1,,7.44,600 mg/kg,≥ 100 mg/kg,1.1,,,,
Brc1ccccc1-c1nnc2c3ccccc3c(N3CCCC3)nn12,> 100 mg/kg,6.12,600 mg/kg,,,,,,
COCCN(CCOC)c1nn2c(-c3ccc(O)cc3)nnc2c2ccccc12,> 50 mg/kg,8.39,600 mg/kg,,1,,,,
NC(=O)c1ccc(-c2nnc3c4ccccc4c(N4CCCC4)nn23)cc1,,6.95,200 mg/kg,≥ 50 mg/kg,1.1,,,,
CCN(CC)c1nn2c(-c3ccccc3)nnc2c2ccccc12,> 100 mg/kg,7.39,600 mg/kg,,,0.9,,,
c1ccc(-c2ccc(-c3nnc4c5ccccc5c(N5CCCC5)nn34)cc2)cc1,> 75 mg/kg,< 5.52,400 mg/kg,,,,,,
COCCN(CCOC)c1nn2c(-c3cccc(Cl)c3)nnc2c2ccccc12,,6.51,600 mg/kg,≥ 100 mg/kg,,,,,
COCCNc1nn2c(-c3ccc(OC)cc3)nnc2c2ccccc12,,8.27,200 mg/kg,≥ 50 mg/kg,1.1,,,,
c1ccc(-c2nnc3c4ccccc4c(N4CCOCC4)nn23)cc1,,7.85,300 mg/kg,≥ 100 mg/kg,0.95,,,,
CCNc1nn2c(-c3ccccc3)nnc2c2ccccc12,> 50 mg/kg,7.42,200 mg/kg,,,0.9,,,
CNc1nn2c(-c3ccccc3)nnc2c2ccccc12,> 60 mg/kg,7.33,300 mg/kg,,,1,,,
COCCN(CCOC)c1nn2c(-c3ccc(OC(C)C)cc3)nnc2c2ccccc12,20.7 mg/kg,6.85,600 mg/kg,,1.8,,10 mg/kg,,
Oc1ccc(-c2nnc3c4ccccc4c(N4CCCC4)nn23)cc1,> 100 mg/kg,7.96,600 mg/kg,,1.1,,,,
CN(C)c1ccc(-c2nnc3c4ccccc4c(N4CCCC4)nn23)cc1,,5.76,300 mg/kg,≥ 75 mg/kg,,,,,
Nc1nn2c(-c3ccccc3)nnc2c2ccccc12,,6.61,600 mg/kg,≥ 100 mg/kg,,,,,
COCCN(CCOC)c1nn2c(-c3ccccc3)nnc2c2ccccc12,34.2 mg/kg,7.18,200 mg/kg,,,1.6,15 mg/kg,,
CN(C)c1ccc(-c2nnc3c4ccccc4c(N4CCCC4)nn23)c(Cl)c1,> 100 mg/kg,6.41,600 mg/kg,,,,,,
CC(C)Nc1nn2c(-c3ccccc3)nnc2c2ccccc12,> 75 mg/kg,6.51,400 mg/kg,,,,,,
COCCN(CCOC)c1nn2c(-c3ccc(C)cc3)nnc2c2ccccc12,,7.36,400 mg/kg,20.4 mg/kg,1.9,,10 mg/kg,,

SMILES,ED50 [1],pKi [2],LD50 [3],ED50 [4],Ratio [5],Ratio [6],minimal effective dose [7],Fallen/treated [8],Fallen/treated [9]
CCCCCOc1ccc(-c2nnc3c4ccccc4c(N4CCCC4)nn23)cc1OC,> 50 mg/kg,< 5.52,200 mg/kg,,,,,,
c1ccc(CNc2nn3c(-c4ccccc4)nnc3c3ccccc23)cc1,> 75 mg/kg,6.61,400 mg/kg,,,,,,
CCCCNc1nn2c(-c3ccccc3)nnc2c2ccccc12,,6.61,600 mg/kg,≥ 100 mg/kg,,,,,
Cc1ccc(-c2nnc3c4ccccc4c(N4CCCC4)nn23)cc1C,> 50 mg/kg,5.71,300 mg/kg,,,,,,
COCCN(CCOC)c1nn2c(-c3ccc(Cl)cc3)nnc2c2ccccc12,60.1 mg/kg,7.77,600 mg/kg,,1.3,,,,
COc1ccc(-c2nnc3c4ccccc4c(N4CCCC4)nn23)cc1OC,> 100 mg/kg,< 5.52,500 mg/kg,,,,,,
O=[N+]([O-])c1cc(-c2nnc3c4ccccc4c(N4CCCC4)nn23)ccc1Cl,> 50 mg/kg,6.04,200 mg/kg,,,,,,
COc1cc(-c2nnc3c4ccccc4c(N4CCCC4)nn23)cc(Br)c1OC,> 100 mg/kg,< 5.52,600 mg/kg,,,,,,
CCOc1c(Br)cc(Br)cc1-c1nnc2c3ccccc3c(N3CCCC3)nn12,> 100 mg/kg,< 5.52,600 mg/kg,,,,,,
COCCN(CCOC)c1nn2c(-c3cccc(C)c3)nnc2c2ccccc12,> 100 mg/kg,6.74,300 mg/kg,,,,,,
FC(F)(F)c1cccc(-c2nnc3c4ccccc4c(N4CCCC4)nn23)c1,,< 5.52,600 mg/kg,≥ 100 mg/kg,,,,,
c1ccc(-c2nnc3c4ccccc4c(N4CCCC4)nn23)cc1,> 75 mg/kg,7.81,400 mg/kg,,1.1,,,2,4
COc1cc(OC)c(-c2nnc3c4ccccc4c(N4CCCC4)nn23)cc1OC,> 50 mg/kg,5.71,300 mg/kg,,,,,,
O=C(O)c1ccc(-c2nnc3c4ccccc4c(N4CCCC4)nn23)cc1,> 75 mg/kg,< 5.52,400 mg/kg,,,,,,
CN(C)c1nn2c(-c3ccccc3)nnc2c2ccccc12,> 75 mg/kg,7.68,400 mg/kg,,,1.1,,2,5
COc1ccc(-c2nnc3c4ccccc4c(N(C)CC(C)O)nn23)cc1 (stereo unspecified),9.8 mg/kg,7.77,300 mg/kg,,1.4,,10 mg/kg,,
COCCN(CCOC)c1nn2c(-c3ccc(F)cc3)nnc2c2ccccc12,,7.70,600 mg/kg,60.1 mg/kg,1.5,,,,
c1ccc(-c2nnc3c4ccccc4c(N4CCCCC4)nn23)cc1,,7.80,600 mg/kg,≥ 100 mg/kg,1,,,,
CC(C)(C)Nc1nn2c(-c3ccccc3)nnc2c2ccccc12,,6.25,300 mg/kg,≥ 50 mg/kg,,,,,
CCOc1cc(OCC)c(-c2nnc3c4ccccc4c(N4CCCC4)nn23)cc1OCC,> 50 mg/kg,< 5.52,300 mg/kg,,,,,,
COCCN(CCOC)c1nn2c(-c3ccc(N(C)C)cc3)nnc2c2ccccc12,,5.58,200 mg/kg,20 mg/kg,,,,,
CN1CCN(c2nn3c(-c4ccccc4)nnc3c3ccccc23)CC1,> 50 mg/kg,7.42,300 mg/kg,,0.9,,,,

# Source: ChEMBL document CHEMBL1124125, “6-(Alkylamino)-3-aryl-1,2,4-triazolo[3,4-a]phthalazines. A new class of benzodiazepine receptor ligands” (J Med Chem, 1988)
